Measured values as given in ChEMBL document CHEMBL1201862, “PubChem BioAssay data set” (2004).
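Tested at 5 concentrations; 48 h exposure; 96-well plates; endpoints linearly interpolated, else capped at highest concentration. Abbreviation: GI50, concentration required for 50% inhibition of growth.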 Active and inactive are the calls of the source. Cut-off read from the data, not from the text of the source: active = GI50 up to about 1.1 µM and inactive = higher.

Columns and labels:
Test in all cases: growth of human tumour cells (NCI), 48 h
786-0 = test system: 786-0
A549 = test system: A549
ACHN = test system: ACHN
BT-549 = test system: BT-549
CCRF-CEM = test system: CCRF-CEM
EKVX = test system: EKVX
HCT-15 = test system: HCT-15
HL-60 = test system: HL-60
HOP-92 = test system: HOP-92
HT-29 = test system: HT-29
Hs-578T = test system: Hs-578T
IGROV-1 = test system: IGROV-1
K562 = test system: K562
KM12 = test system: KM12
LOX IMVI = test system: LOX IMVI
M14 = test system: M14
MCF7 = test system: MCF7
MDA-MB-231 = test system: MDA-MB-231
MDA-MB-435 = test system: MDA-MB-435
MDA-N = test system: MDA-N
MOLT-4 = test system: MOLT-4
Malme-3M = test system: Malme-3M
NCI-H23 = test system: NCI-H23
NCI-H460 = test system: NCI-H460
NCI-H522 = test system: NCI-H522
NCI/ADR-RES = test system: NCI/ADR-RES
OVCAR-3 = test system: OVCAR-3
OVCAR-4 = test system: OVCAR-4
OVCAR-5 = test system: OVCAR-5
OVCAR-8 = test system: OVCAR-8
PC-3 = test system: PC-3
RXF 393 = test system: RXF 393
SF-268 = test system: SF-268
SF-295 = test system: SF-295
SF-539 = test system: SF-539
SK-MEL-2 = test system: SK-MEL-2
SK-MEL-5 = test system: SK-MEL-5
SK-OV-3 = test system: SK-OV-3
SN12C = test system: SN12C
SNB-19 = test system: SNB-19
SNB-75 = test system: SNB-75
SR = test system: SR
SW-620 = test system: SW-620
T47D = test system: T47D
TK-10 = test system: TK-10
U-251 = test system: U-251
UACC-257 = test system: UACC-257
UACC-62 = test system: UACC-62
UO-31 = test system: UO-31
CAKI-1 = test system: CAKI-1
COLO 205 = test system: COLO 205
HCT-116 = test system: HCT-116
HOP-62 = test system: HOP-62
NCI-H226 = test system: NCI-H226
SK-MEL-28 = test system: SK-MEL-28
DU-145 = test system: DU-145
HCC 2998 = test system: HCC 2998
RPMI-8226 = test system: RPMI-8226

SMILES: O=C(Cc1ccc([N+](=O)[O-])cc1)OCC#CCOC(=O)Cc1ccc([N+](=O)[O-])cc1
- GI50 (786-0): > 10 µM (inactive)
- GI50 (A549): > 10 µM (inactive)
- GI50 (ACHN): > 10 µM (inactive)
- GI50 (BT-549): > 10 µM (inactive)
- GI50 (CCRF-CEM): > 10 µM (inactive)
- GI50 (EKVX): > 10 µM (inactive)
- GI50 (HCT-15): > 10 µM
- GI50 (HL-60): > 10 µM (inactive)
- GI50 (HOP-92): > 10 µM (inactive)
- GI50 (HT-29): > 10 µM (inactive)
- GI50 (Hs-578T): > 10 µM (inactive)
- GI50 (IGROV-1): > 10 µM (inactive)
- GI50 (K562): > 10 µM (inactive)
- GI50 (KM12): > 10 µM (inactive)
- GI50 (LOX IMVI): > 10 µM (inactive)
- GI50 (M14): > 10 µM (inactive)
- GI50 (MCF7): > 10 µM (inactive)
- GI50 (MDA-MB-231): > 10 µM (inactive)
- GI50 (MDA-MB-435): > 10 µM (inactive)
- GI50 (MDA-N): > 10 µM (inactive)
- GI50 (MOLT-4): > 10 µM (inactive)
- GI50 (Malme-3M): > 10 µM (inactive)
- GI50 (NCI-H23): > 10 µM (inactive)
- GI50 (NCI-H460): > 10 µM (inactive)
- GI50 (NCI-H522): > 10 µM (inactive)
- GI50 (NCI/ADR-RES): > 10 µM (inactive)
- GI50 (OVCAR-3): > 10 µM (inactive)
- GI50 (OVCAR-4): > 10 µM (inactive)
- GI50 (OVCAR-5): > 10 µM (inactive)
- GI50 (OVCAR-8): > 10 µM (inactive)
- GI50 (PC-3): > 10 µM (inactive)
- GI50 (RXF 393): > 10 µM (inactive)
- GI50 (SF-268): > 10 µM (inactive)
- GI50 (SF-295): > 10 µM (inactive)
- GI50 (SF-539): > 10 µM (inactive)
- GI50 (SK-MEL-2): > 10 µM (inactive)
- GI50 (SK-MEL-5): > 10 µM (inactive)
- GI50 (SK-OV-3): > 10 µM (inactive)
- GI50 (SN12C): > 10 µM (inactive)
- GI50 (SNB-19): > 10 µM (inactive)
- GI50 (SNB-75): > 10 µM (inactive)
- GI50 (SR): > 10 µM (inactive)
- GI50 (SW-620): > 10 µM (inactive)
- GI50 (T47D): > 10 µM (inactive)
- GI50 (TK-10): > 10 µM (inactive)
- GI50 (U-251): > 10 µM (inactive)
- GI50 (UACC-257): > 10 µM (inactive)
- GI50 (UACC-62): > 10 µM (inactive)
- GI50 (UO-31): > 10 µM (inactive)

SMILES: COc1cc([C@@H]2c3cc4c(cc3[C@@H](NCCNCCO)[C@H]3COC(=O)[C@H]23)OCO4)cc(OC)c1O
- GI50 (786-0): 1.09 µM (active)
- GI50 (A549): 0.785 µM (active)
- GI50 (BT-549): 1.92 µM (inactive)
- GI50 (CAKI-1): 3.78 µM (inactive)
- GI50 (CCRF-CEM): 0.0432 µM (active)
- GI50 (COLO 205): 2.38 µM (inactive)
- GI50 (HCT-116): 2.4 µM (inactive)
- GI50 (HCT-15): 29.5 µM
- GI50 (HOP-62): 1.5 µM (inactive)
- GI50 (HT-29): 2.86 µM (inactive)
- GI50 (Hs-578T): 1.89 µM (inactive)
- GI50 (IGROV-1): 1.05 µM (active)
- GI50 (K562): 1.71 µM (inactive)
- GI50 (KM12): 2.55 µM (inactive)
- GI50 (M14): 3.79 µM (inactive)
- GI50 (MDA-MB-435): 6.22 µM (inactive)
- GI50 (MDA-N): 4.35 µM (inactive)
- GI50 (MOLT-4): 0.016 µM (active)
- GI50 (NCI-H226): 1.12 µM (inactive)
- GI50 (NCI-H23): 1.24 µM (inactive)
- GI50 (NCI-H460): 0.0525 µM (active)
- GI50 (NCI/ADR-RES): > 100 µM (inactive)
- GI50 (OVCAR-4): 18.7 µM (inactive)
- GI50 (OVCAR-8): 2.09 µM (inactive)
- GI50 (PC-3): 2.67 µM (inactive)
- GI50 (RXF 393): 1.53 µM (inactive)
- GI50 (SK-MEL-28): 2.14 µM (inactive)
- GI50 (SK-MEL-2): 2.15 µM (inactive)
- GI50 (SK-MEL-5): 1.15 µM (inactive)
- GI50 (SK-OV-3): 1.78 µM (inactive)
- GI50 (SNB-19): 0.857 µM (active)
- GI50 (SNB-75): 1.1 µM (active)
- GI50 (SW-620): 2.44 µM (inactive)
- GI50 (T47D): 0.442 µM (active)
- GI50 (TK-10): 6.59 µM (inactive)
- GI50 (U-251): 0.501 µM (active)
- GI50 (UACC-257): 7.85 µM (inactive)
- GI50 (UACC-62): 0.644 µM (active)
- GI50 (UO-31): 11.6 µM (inactive)

SMILES: O=C(O)c1cccc(S(=O)(=O)NN2C(=O)CSC2c2ccccc2Cl)c1 (centres undefined)
- GI50 (786-0): > 100 µM (inactive)
- GI50 (A549): > 100 µM (inactive)
- GI50 (ACHN): > 100 µM (inactive)
- GI50 (BT-549): > 100 µM (inactive)
- GI50 (CAKI-1): > 100 µM (inactive)
- GI50 (CCRF-CEM): > 100 µM (inactive)
- GI50 (COLO 205): > 100 µM (inactive)
- GI50 (DU-145): > 100 µM (inactive)
- GI50 (EKVX): > 100 µM (inactive)
- GI50 (HCC 2998): > 100 µM (inactive)
- GI50 (HCT-116): > 100 µM (inactive)
- GI50 (HCT-15): > 100 µM
- GI50 (HL-60): > 100 µM (inactive)
- GI50 (HOP-62): > 100 µM (inactive)
- GI50 (HOP-92): > 100 µM (inactive)
- GI50 (HT-29): > 100 µM (inactive)
- GI50 (Hs-578T): > 100 µM (inactive)
- GI50 (IGROV-1): > 100 µM (inactive)
- GI50 (K562): > 100 µM (inactive)
- GI50 (KM12): > 100 µM (inactive)
- GI50 (LOX IMVI): > 100 µM (inactive)
- GI50 (M14): > 100 µM (inactive)
- GI50 (MCF7): > 100 µM (inactive)
- GI50 (MDA-MB-231): > 100 µM (inactive)
- GI50 (MDA-MB-435): > 100 µM (inactive)
- GI50 (MDA-N): > 100 µM (inactive)
- GI50 (MOLT-4): > 100 µM (inactive)
- GI50 (Malme-3M): > 100 µM (inactive)
- GI50 (NCI-H226): 58.3 µM (inactive)
- GI50 (NCI-H23): > 100 µM (inactive)
- GI50 (NCI-H460): > 100 µM (inactive)
- GI50 (NCI-H522): > 100 µM (inactive)
- GI50 (OVCAR-3): > 100 µM (inactive)
- GI50 (OVCAR-5): > 100 µM (inactive)
- GI50 (OVCAR-8): > 100 µM (inactive)
- GI50 (PC-3): > 100 µM (inactive)
- GI50 (RPMI-8226): 81.3 µM (inactive)
- GI50 (RXF 393): > 100 µM (inactive)
- GI50 (SF-268): > 100 µM (inactive)
- GI50 (SF-295): > 100 µM (inactive)
- GI50 (SF-539): > 100 µM (inactive)
- GI50 (SK-MEL-28): > 100 µM (inactive)
- GI50 (SK-MEL-2): > 100 µM (inactive)
- GI50 (SK-MEL-5): > 100 µM (inactive)
- GI50 (SK-OV-3): > 100 µM (inactive)
- GI50 (SN12C): > 100 µM (inactive)
- GI50 (SNB-19): > 100 µM (inactive)
- GI50 (SNB-75): > 100 µM (inactive)
- GI50 (SR): 4.09 µM (inactive)
- GI50 (SW-620): > 100 µM (inactive)
- GI50 (T47D): > 100 µM (inactive)
- GI50 (TK-10): > 100 µM (inactive)
- GI50 (U-251): > 100 µM (inactive)
- GI50 (UACC-257): > 100 µM (inactive)
- GI50 (UACC-62): > 100 µM (inactive)
- GI50 (UO-31): > 100 µM (inactive)
